# Experiments:
# ALPK1 [1] = molecular target: T1, ALPK1 (Homo sapiens, UniProt Q96QP1); test: Cell-free kinase assay of ALPK1 autophosphorylation (Western, anti-phospho-threonine); assay type: biochemical; settings: 2 nM ALPK1 with ATP, 25° C., 1 h; H1b-ADP 10, 1, 0.2 nM; HBP and HMP-1bP 1, 10, 100 nM
# Procedure: ALPK1 activation results in its autophosphorylation. Accordingly, we next asked whether the binding of H1b-ADP to ALPK1 was sufficient to induce ALPK1 autophosphorylation. Phosphorylation assays were performed according to standard protocols. Briefly, ALPK1 was incubated (2 nM, 25° C., 1 h) in assay buffer (20 μl, 25 mM HEPES pH 7.5, 50 mM KCl, 0.1 mM EDTA, 0.1 mM EGTA, 2 mM DTT, 1.5 mM CaCl2, 10 mM MgCl2) with ATP and chemically synthesized HBP, HMP-1bP, or H1b-ADP followed by denaturing gel electrophoresis and Western analysis with an anti-phospho-threonine antibody (CST) to detect autophosphorylation of ALPK1. […] The range of concentrations of HBP and HMP-1bP used in this assay (1 nM, 10 nM, 100 nM) was 10-fold higher than that used for H1b-ADP.
# ALPK1 [2] = molecular target: T1, ALPK1; test: In vitro kinase assay of ALPK1-dependent TIFA phosphorylation; assay type: biochemical
# Procedure: We performed an in vitro kinase assay with H1b-ADP and H1b-ADP-6L along with ALPK1 protein (2 nM), and TIFA protein (1.6 uM) in kinase buffer containing 50 uM ATP. TIFA phosphorylation was analyzed by denaturing gel electrophoresis followed by western blotting using an anti-phosphothreonine antibody. H1b-ADP or H1b-ADP-6L was added at 2 nM, 0.4 nM, 80 pM, 16 pM, and 3 pM.
# To test this, we performed an in vitro kinase reaction for ALPK1-dependent TIFA phosphorylation in the presence of either HBP or HIdA purified from E. coli containing inactivated HIdE, or in the presence of HBP and HIdA purified from the same HIdE wild-type E. coli used in the previous experiments. Phosphorylated TIFA (three concentrations, 1%, 0.2% and […]) was detected as described above by denaturing gel electrophoresis followed by Western analysis.
# CT26 cells = test: CT26 tumor xenograft model, tumor growth (tumor volume); assay type: in vivo, BALB/c mice
# Procedure: We used a CT26 tumor xenograft model to test the anti-cancer activity of H1b-ADP. Tumor cells (2×10^5 per 100 uL CT26 cells) were inoculated subcutaneously into the right flank of BALB/c mice. At day 6, mice whose tumors had reached 3-5 mm in diameter were randomized and grouped into three groups (n=8 each group), control, HMP-1bP (580 ug), and H1b-ADP (1.2 ug). Injections were performed using a total volume of 20 uL at days 6, 8, 10, 12, and 14 post inoculation. Tumor volumes were calculated every 2 days from caliper measurements of tumor dimension using the formula (L×W^2)/2, where L is the longer measurement.
# To test whether H1b-ADP could augment an anti-tumor response by a checkpoint inhibitor, we tested the effects of co-administration with an anti-PD1 antibody. Tumor cells (2×10^5 per 100 μL CT26 cells) were inoculated subcutaneously into the left and right flanks of BALB/c mice. At day 7, mice whose tumors had reached 5 mm in diameter were randomized and grouped (n=8 each group) into the following four groups: anti-PD1 antibody; rat IgG; H1b-ADP+rat IgG; H1b-ADP+anti-PD1 antibody. We utilized RMP1-14 as the anti-PD1 antibody (10 mg/kg) and a rat IgG 2a (2A3) as the control IgG. Each of the anti-PD-1 antibody and the control IgG was administered intraperitoneally in a 200 μL volume on days 6, 10, 12, and 17 post-inoculation. H1b-ADP (6.2 μg) was intratumorally injected in a 20 μL volume at day 6, 8, 10, 12, and 15. Tumor volumes were calculated every 2 days from caliper measurements of tumor dimensions using the formula (L×W^2)/2, where L is the longer measurement. The results are shown in FIG. 13A for injected tumors and FIG. 13B for distant tumors. […]
# The experiment was carried out as combo experiments of anti-PD1 except for the following variations. At day 6, mice whose tumors had reached 5 mm in diameter were randomized and grouped into the following four groups: anti-CTLA-4 antibody; rat IgG; H1b-ADP+rat IgG; H1b-ADP+anti-CTLA-4 antibody. We utilized 9D9 (BioxCell) as the anti-CTLA-4 antibody and a rat IgG 2b isotype (MPC-11 clone, BE0086, BioXCell) as the control IgG. Each of the anti-CTLA-4 antibody (25 μg) and the control IgG (25 μg) was administered intraperitoneally in a 200 μL volume on days 6 and 9 post-inoculation. H1b-ADP (6.2 μg) was administered intratumorally in a 20 μL volume on days 6, 7, 9, 11 post-inoculation.
# The experiment was carried out as combo experiments of anti-PD1 except for the following variations. At day 6, mice whose tumors had reached 5 mm in diameter were randomized and grouped into the following four groups: c-di-AM(PS)2; PBS; H1b-ADP; H1b-ADP+c-di-AM(PS)2. We utilized c-di-AM(PS)2 as the STING agonist. […]
# T1 sequence (Q96QP1 whole entry): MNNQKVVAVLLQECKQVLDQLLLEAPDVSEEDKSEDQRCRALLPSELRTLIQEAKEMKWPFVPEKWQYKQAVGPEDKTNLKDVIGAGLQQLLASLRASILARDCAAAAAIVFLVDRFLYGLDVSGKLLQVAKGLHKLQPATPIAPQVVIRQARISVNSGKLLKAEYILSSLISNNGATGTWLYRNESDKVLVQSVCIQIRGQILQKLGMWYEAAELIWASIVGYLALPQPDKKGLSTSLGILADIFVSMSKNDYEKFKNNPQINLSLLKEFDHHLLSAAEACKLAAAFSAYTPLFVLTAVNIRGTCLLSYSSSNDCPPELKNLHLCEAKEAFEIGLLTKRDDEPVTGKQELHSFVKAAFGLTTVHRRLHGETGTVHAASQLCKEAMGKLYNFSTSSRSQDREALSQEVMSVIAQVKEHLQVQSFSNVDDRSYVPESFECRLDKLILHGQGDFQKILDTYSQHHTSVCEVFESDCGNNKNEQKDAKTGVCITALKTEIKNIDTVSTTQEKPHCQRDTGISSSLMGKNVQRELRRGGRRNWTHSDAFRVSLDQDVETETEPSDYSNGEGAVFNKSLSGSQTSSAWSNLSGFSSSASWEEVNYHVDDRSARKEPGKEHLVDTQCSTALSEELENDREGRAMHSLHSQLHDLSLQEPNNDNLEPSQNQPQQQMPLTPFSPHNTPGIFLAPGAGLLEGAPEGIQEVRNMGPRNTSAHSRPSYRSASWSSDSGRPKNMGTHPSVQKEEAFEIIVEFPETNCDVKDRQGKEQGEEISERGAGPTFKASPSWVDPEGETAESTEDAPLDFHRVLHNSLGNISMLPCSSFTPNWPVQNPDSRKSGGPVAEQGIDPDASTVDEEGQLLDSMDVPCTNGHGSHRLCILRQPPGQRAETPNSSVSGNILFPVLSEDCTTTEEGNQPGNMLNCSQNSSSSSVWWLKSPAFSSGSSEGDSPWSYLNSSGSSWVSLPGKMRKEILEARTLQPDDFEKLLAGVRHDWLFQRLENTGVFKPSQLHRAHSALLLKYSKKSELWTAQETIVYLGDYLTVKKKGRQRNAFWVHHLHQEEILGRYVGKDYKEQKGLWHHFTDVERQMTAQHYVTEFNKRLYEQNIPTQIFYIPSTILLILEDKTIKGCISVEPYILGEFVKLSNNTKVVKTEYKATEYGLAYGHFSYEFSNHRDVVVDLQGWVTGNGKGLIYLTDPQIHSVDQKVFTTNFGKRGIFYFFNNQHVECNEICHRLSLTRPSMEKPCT
Compound,autophosphorylation of ALPK1 (ALPK1 [1]),"TIFA phosphorylation (ALPK1 [2]; ALPK1 2 nM, TIFA 1.6 uM, 50 uM ATP, compound 2 nM, 0.4 nM, 80 pM, 16 pM, 3 pM)","tumor growth (CT26 cells; Example 7, H1b-ADP 6.2 μg intratumoral, anti-PD1 antibody 10 mg/kg intraperitoneal, injected and distant tumors)","phosphorylation of the ALPK1 substrate TIFA (ALPK1 [2]; FIG. 7, chemically-synthesized compounds)","tumor growth (CT26 cells; intratumoral, days 6, 8, 10, 12, 14, HMP-1bP 580 ug, H1b-ADP 1.2 ug)"
"Nc1ncnc2c1ncn2[C@@H]1O[C@H](COP(=O)(O)OP(=O)(O)O[C@@H]2O[C@H]([C@H](O)CO)[C@@H](O)[C@H](O)[C@@H]2O)[C@@H](O)[C@H]1O [Compound H1b-ADP, D-glycero-D-manno-heptose-1β-ADP]",phosphorylation of ALPK1 was detected only in the presence of H1b-ADP,phosphorylation of the ALPK1 substrate TIFA,markedly suppressed tumor growth,–,–
"O=P(O)(O)O[C@@H]1O[C@H]([C@H](O)CO)[C@@H](O)[C@H](O)[C@@H]1O [HMP-1bP, D-glycero-β-D-manno-heptose-1-phosphate]",not HBP or HMP-1bP induces ATP-dependent autophosphorylation,–,–,TIFA is phosphorylated only in the presence of H1b-ADP,"but not HMP-1bP, reduced tumor growth"
